System: human SW480 colorectal cancer cells
Assay: Tumor xenograft efficacy in NSG mice
Format: in vivo
Details: 50 mg/kg oral gavage three times per week, 5-weeks of treatment
Procedure: Drug efficacy using in vivo tumor xenografts. In vivo drug efficacy studies were performed on ten NSG female randomized mice per cohort. The mice had tested negative for any pathogen. Tumor inoculation was induced by subcutaneous injection in the left and right dorsal flank, each with a 150 μL suspension of 1-5×10^6 human colon cancer cells in phosphate-buffered saline with Matrigel (1:1). After tumor size reached 100 mm^3, mice were treated 3×/week with dimethyl sulfoxide vehicle or CB002-analog #4 via oral gavage (22-gauge needle) in a solution of 10% dimethyl sulfoxide, 20% Kolliphor® EL (Sigma cat. no. C5135), and 70% phosphate-buffered saline. Mouse weight and tumor measurements were recorded one-two times per week. Tumor volume was calculated as V=0.5*L*W^2, where L is length and W is the width of the tumor. At the end of the assay, mice were euthanized by CO2. All in vivo procedures were performed according to an approved Institutional Animal Care and Use Committee (IACUC) protocol.

With Cn1c(=O)c2[nH]c(Nc3cccc(C(F)(F)F)c3)nc2n(C)c1=O [CB002-analog #4] the tumor volume was “lower tumor volume than vehicle control”.

— US20230219957A1, “SMALL MOLECULE CB002-ANALOGES RESTORE THE P53 PATHWAY AND TARGET S-PHASE CHECKPOINT” (Brown University, priority 2020, published 2023)
